Molecules are shown by their SMILES. Like-named read-outs stand apart in the source and are kept apart here.

In one series the test system is XA binding sites. Nature of the series: Displacement of [3H]XA specific binding by competitors. To be noted: for displacement of radioactive XA specific binding: compound at 200 µM, displacement by 200 µM XA set at 100%. Set-up: species or system rat. The procedure: Membranes (from brain or cell cultures) were incubated for 30 min at 0°C in 50 mM Pipes buffer, pH 7.4 in the presence of [^3H]-XA (2 µCi per µmole total XA at various concentrations). Non-specific binding was determined with 1 mM non-radioactive XA in the medium. Bound from free ligand was separated by rapid filtration on 25 mm Whatman GF/B filters and washing with incubation buffer (3×3 ml at 0°C). Radioactivity on filters was measured by liquid scintillation counting.
Two approaches were used for screening the pharmacological properties of XA specific binding. First, we tested at rather high concentration (200 µM) a battery of putative ligands for these sites. […] The fact that glutamate displaced not more than 10% of radioactive XA eliminates possible binding of XA on glutamate receptors under our conditions.
(In a radioligand displacement assay an active substance lowers the binding of a labelled ligand.)

For series [1], the system named is differentiated NCB-20 cells. Nature of the series: Cell-attached patch-clamp recording. The class given is cell-based, mouse neuroblastoma / Chinese hamster brain cell hybrid. The procedure:
(§1) NCB-20 cells were plated at low density (10^4 cells/dish) in 35-mm dishes and differentiated with 1 mM db-cAMP. The culture medium was replaced twice a week and the cells were used after 5 days in culture. Cells were recorded either in cell-attached or whole-cell configuration of the patch-clamp technique using an Axopatch-B200 amplifier (Axon Instruments, CA, USA) in its voltage-clamp mode. […] Junction potentials were calculated using the routine procedure in the Clampex software (Axon instruments, CA, USA) and taken into account for current-voltage (I–V) relationships and reversal potential calculation according to the recording configuration.
For cell-attached recording the pipette was filled with a medium containing (in mM): N-Methyl-D-Glucamine (NMDG) chloride 140, KCl 1, MgCl2 10, EGTA 5, TEA-Cl 15, HEPES 10, pH = 7.4. To maintain the cell membrane potential close to zero, the recorded cells were continuously superfused with a bath solution containing (in mM): KCl 140, NaCl 1, MgCl2 1, CaCl2 0.5, EGTA-K 1, HEPES 10, D-glucose 10, pH = 7.4. […] Drugs were dissolved in DMSO and diluted in control solutions such that DMSO in the applied solution was diluted by a factor of at least 10^4. Drugs were applied to the recorded cells through a multi-barrel perfusion system, the rapid solution exchanger RCS-160 (Bio-Logic, Grenoble, France). […] The first tube was filled with control solution and was used to maintain a continuous superfusion of the recorded cell between applications. The selected tube was placed in front of the cell by axial rotation of calibrated angles and the application started when the selected tube takes place in front of the cell.
(§2) Data were analyzed offline using the clampfit routine of the Pclamp software package. The given results are means±SEM and statistical significance of the difference between means was determined using one way ANOVA followed by Dunnett's Multiple Comparison test.
For orientation: Patch clamp records ionic current or voltage across a cell membrane.

A further series relates to NCB-20 cells. Description: Fluo-4 monitoring of [Ca2+]i changes. In kind it is cell-based, mouse neuroblastoma / Chinese hamster brain cell hybrid. As to the method:
The method of cellular calcium measurement used was as described previously. Briefly, NCB-20 cells were plated in glass-bottomed culture dishes and incubated at 37°C for four days. […] Then the cells were washed with Krebs for 30 min at room temperature in the dark. All settings of the laser (Argon-Krypton laser, turned to 488 nm), optical filter (BF 530/30) and microscope (Leica TCS-SP confocal inverted microscope) as well as data acquisition were controlled by the LCS (Leica Confocal System) software.
Images were recorded at a frequency of 0.1 Hz. Analysis was performed by defining regions of interest (ROI) in the first image. Values are expressed as the percentage of fluorescence change with respect to control and calculated as F/F 0 (%) (where F is the fluorescence intensity at a given time and F 0 the basal fluorescence intensity at the beginning of the experiment).
The cells were continuously superfused with normal Krebs medium and transiently submitted to the tested drug using a peristaltic pump with a flow rate of 1 ml/min. For each analyzed cell, the mean and the standard deviation (SD) of the F/F 0 of fluorescence were measured during 1–2 min before (base line) and after (signal) drug application and compared. Statistical significance of the difference between means was determined using one way ANOVA followed by Dunnett's Multiple Comparison Test for repeated measurements on absolute levels of fluo-4 fluorescence.

The subject of series [2] is XA binding sites on IMR-32 neuroblastoma cells. Description: [3H]-XA saturation binding on IMR-32 neuroblastoma cell membranes. On the set-up: species or system human. Particulars: IMR-32 membranes, read-out: dissociation constant (Kd). As to the method: Cultures were maintained for one week at 37°C in the presence of CO2 (5%).
(§3) Neurons were scraped into potassium phosphate buffer 50 mM, EDTA 2 mM, pH 6.0 at 0°C. After centrifugation at 2,000 g for 3 min to eliminate nuclei and large fragments, the supernatant was spun down at 15,000 g for 10 min; the pellet was washed with the same buffer and directly used for binding experiments.
(§4) Bound from free ligand was separated by rapid filtration on 25 mm Whatman GF/B filters and washing with incubation buffer (3×3 ml at 0°C). Radioactivity on filters was measured by liquid scintillation counting.

The test system of series [3] is 75 transmembrane and soluble receptors, ion channels and monoamine transporters. Nature of the series: Cerep high-throughput profile screening. In kind it is binding. To be noted: XA at 10 µM. As to the method: Secondly, to extend the pharmacological profile of XA, this compound was tested on high-throughput profile screening which involved a collection of 75 transmembrane and soluble receptors, ion channels and monoamine transporters (Cerep, France Laboratories, Poitiers). XA was tested on these collections of proteins at 10 µM concentration.

For series [4] the following is noted: peripheral administration; cited from earlier work.
For series [5], the system named is differentiated NCB-20 cells. Nature of the series: cells. As to the method: as §1, §2
Series [6] concerns XA binding sites on NCB-20 neuroblastoma cells. Nature of the series: [3H]-XA saturation binding on NCB-20 neuroblastoma cell membranes. Set-up: species or system mouse neuroblastoma / Chinese hamster brain cell hybrid. To be noted: NCB-20 membranes, read-out: dissociation constant (Kd). The procedure:
as §3, §4

The subject of series [7] is XA binding sites on crude synaptosomal membranes from rat brain. Description: [3H]-XA saturation and kinetic binding on crude synaptosomal membranes from rat brain. As to the method: Brains were rapidly extracted from adult male Wistar rats killed by decapitation after being stunned. All the following procedures were done with buffers cooled at 0°C. Brains were homogenized with a motor driven Teflon/glass apparatus in 10 vol (W/V) of sucrose 0.32 M containing potassium phosphate buffer pH 7.2 and 2 mM EDTA. After centrifugation at 1,500 g for 10 min to remove the crude nuclear fraction, the supernatant was spun at 35,000 g for 20 min. The pellet obtained was resuspended in lysis buffer (2 mM EDTA/water pH 6.0 at 0°C, spun at 100,000 g for 20 min). After washing the pellet with potassium phosphate buffer 50 mM, pH 6.0, the crude membrane fraction was directly used for further experiments or stored at −80°C.
as §4

Another series has as its system various cell cultures. To be noted: concentration of 10 µM; cited from earlier work.
In series [8] the test system is rat brain synaptosomal membranes. Particulars: read-out: EC50 of GTP-γ-S binding; XA 0.5 to 50 µM, 5 µM GDP, 20 mM MgCl2. The procedure:
The Scintillation Proximity Assay (SPA) of Amersham was used. […] Brain synaptosomal membranes were thus incubated in assay buffer (pH 7.4) containing 20 mM HEPES, 100 mM NaCl, 20 mM MgCl2 with 0.3 nM [^35S]GTP-γ-S and 5 µM GDP for 30 min at room temperature. Non-specific binding was determined in the presence of 200 µM GTP. WGA SPA beads were added and the mixture was incubated at room temperature for a further 30 min. The plates were centrifuged at 1,200 g for 5 min and SPA cpm were determined by scintillation counting.
In general terms: GTPγS is a poorly hydrolysed GTP analogue; its binding reports G protein activation.

Where [9] appears, read: frequency histogram of the illustrated XA response.
Setting [10] is: illustrated response to 10 µM XA, NMDG-Cl pipette, ramp protocol.

With `NCCCC(=O)O` [GABA], in the series on XA binding sites, the “displacement of radioactive XA specific binding” value (“displacement” for short) is given as “very low potency”.
For orientation: IC50 means the concentration needed to halve the response being measured. Consider `O=C(O)c1cc(O)c2c(Cl)cc(Cl)c(O)c2n1` [NCS-482], for which the IC50 at XA binding sites is 350 nM. Moreover, the “functional properties in patch-clamp experiments” value (shortened to “functional properties”) in series [1] is reported as “agonistic”.
For the compound `Nc1cccc2c(O)cc(C(=O)O)nc12` [NCS-486], the “fluo-4 fluorescence (F/F0)” value in the series with NCB-20 cells (100 µM NCS-486 applied alone, 5 min) stood at 83.9±2.7%; in the series on NCB-20 cells (100 µM NCS-486 with 25 µM XA, 5 min), 86.9±0.7%. On XA binding sites, this compound displayed an IC50 of 14600 nM. For the same compound, the “functional properties” value in [1] was “antagonistic”. The results for the “reduction of the agonist-induced current-response” value in series [1] (NCS-486 20 µM co-applied with 5 µM XT-21), in series [1] (NCS-486 20 µM co-applied with 10 µM XA) and in [1] (NCS-486 20 µM co-applied with 18 µM NCS-482) were 86.1±5.0%, 88.3±3.8% and 88.7±3.2%, respectively. Also, in series [1] (NCS-486 20 µM, 6 cells tested), the “effect when applied alone” value is “did not have any effect by itself”.
One may read the Kd as the free concentration of one partner at which half of the binding sites on the other are occupied at equilibrium, for simple one-to-one binding. What is called Hill coefficient is a measure of the steepness of the concentration-response curve. A word on the EC50: it is the concentration at which the effect is half-maximal. In the case of `O=C(O)c1cc(O)c2cccc(O)c2n1` [XA, Xanthurenic acid], in series [2], the dissociation constant Kd turned out to be 750 nM. In series [3], the “competition on the binding of specific ligands of the 75 proteins” value is listed as “No significant competitive properties”; the “effect on adenosine, benzodiazepine, dopamine, GABA, canabinoid, histamine, muscarinic, opioid, purinergic and serotonin receptors” value is reported as “no effect”. Moreover, the brain penetration entry in series [4] was “penetrates the brain freely”. For the same compound, in series [5] (Hill fit of dose-response), the Hill coefficient worked out at 3.5 and the maximal conductance was determined as 12.5 nS. The “cells tested showing an XA induced response” value in series [5] (XA 1 to 30 µM, whole-cell) is listed as “about 71%”. For the same compound, in [5] (high chloride pipette medium), the “reversal potential of XA-induced current” value is listed as −3.3±4.0 mV. For the same compound, in [5] (low chloride pipette medium), the “reversal potential of XA-induced current” value is reported as −3.8±2.5 mV. Besides, in series [5] (read-out: EC50 of XA activated conductance), the EC50 was found to be 11700 ± 2200 nM. In addition, in the series with NCB-20 cells (10 µM XA), the “persistence of signal before returning to basal levels” value is recorded as “about 5 min” and the “start of signal after XA application” value is on record as “about 1 min”. In the series on NCB-20 cells (10 µM XA, 6 min application), the “intensity of fluo-4 signal above basal levels” value is reported as 60–80%. In addition, the “fluo-4 fluorescence (F/F0)” value with NCB-20 cells (25 µM XA after 5 min washout of NCS-486) is given as 134.9±6.5%. The “mean apparent maximum of the response (F/F0)” value with NCB-20 cells (XA 1 to 10 µM) was “about 157±3%”. Besides, the EC50 in the series on NCB-20 cells (read-out: EC50 of first (activation) phase of Ca2+ response) came to 1400 nM. Also, in series [6], the dissociation constant (Kd) amounted to 1300 nM. The IC50 on XA binding sites stood at 300 nM. Further, in series [1] (all XA responses, mean ± SEM), the “Er1, global mean value” was −32.2±4.0 mV; the “Er2, global mean value” was −13.9±1.1 mV; the “Er3, global mean value” is given as −1.0±0.6 mV; the “Er4, global mean value” is recorded as 11.5±0.8 mV. Moreover, in [1] (all XA responses, mean ± SEM), the “Er5, global mean value” is 31.1±2.0 mV. Moreover, in series [1] (setting [9]), the “Er1, mean of Gaussian fit” value is on record as −23.2 mV; the “Er2, mean of Gaussian fit” value is listed as −9.6 mV; the “Er3, mean of Gaussian fit” value turned out to be 0.8 mV; the “Er4, mean of Gaussian fit” value came out at 12.6 mV. In addition, in series [1] (setting [9]), the “Er5, mean of Gaussian fit” value worked out at 20.3 mV. Further, in series [1] (setting [10]), the “reversal potential (Er), position 1 (initial value)” value was −9 mV; the “reversal potential (Er), position 2” value is recorded as “about 14 mV”; the “reversal potential (Er), position 3” value is listed as about 25 mV; the “reversal potential (Er), position 4” value was about −1 mV. The “reversal potential (Er), position 5” value in series [1] (setting [10]) was about −26 mV. In [7] ([3H]-XA 0.2 µM, pH 7.4, 0°C), the Kob is 1.44 min⁻¹. Besides, the Kd in series [7] (from Kob and Koff, read-out: calculated Kd (from rate constants)) is 1400 nM. The Kd in series [7] (saturation experiments, crude brain synaptosomal membranes, pH 7.4, 0°C, read-out: dissociation constant (Kd)) was 740 nM. The “toxicity in cell cultures” value in the series with various cell cultures is recorded as “apoptotic-like cell death”. In addition, the EC50 in [8] was found to be 2000 ± 1900 nM.
Regarding `O=C(O)c1cc(O)c2cc(-c3ccccc3)cc(O)c2n1` [XT-21], the IC50 at XA binding sites was 4600 nM. Besides, the “functional properties” value in [1] is on record as “agonistic”. Also, in [1] (XT-21 5 µM, cell-attached), the “response amplitude relative to 10 µM XA” value is “about 2.5 fold” and the “response amplitude relative to 18 µM NCS-482” value was about 1.5 fold.
As to `O=C(O)c1cc(=O)c2ccccc2[nH]1` [kynurenic acid], the “displacement” value with XA binding sites is reported as 30%.
Take `O=C(O)c1ccccn1` [picolinic acid]: on XA binding sites, the IC50 came out at 41000 ± 5000 nM and the “displacement” value is 60%.
For `O=C(O)c1cccnc1C(=O)O` [quinolinic acid], the “displacement” value in the series with XA binding sites came to 40%.

The record behind these values is PMC3491036 (PLoS ONE, 2012).
